Assay results taken from patent publication US9187438B2, “Derivatives of benzothiazines, preparation thereof and application thereof as drugs” (PIERRE FABRE MEDICAMENT, priority 2009, dated 2015).

Tests used:
Format in all cases: biochemical
11β-HSD1 [1] = molecular target: T1, 11β-HSD1 (Homo sapiens, UniProt P28845); experiment: Human enzymatic activity of 11β-HSD1 from liver microsomes, [3H]cortisone to [3H]cortisol conversion, SPA (inhibition % or EC50); details: for inhibition at 1 µM: 10^−6M inhibitor, read-out: 11β-HSD1/SPA % inhib. (10^−6M)
T1 construct: adding 1 μg of human hepatic microsome (Xenotech); tissue Xenotech; host or cells: human liver microsomes
T1 sequence (P28845 whole entry): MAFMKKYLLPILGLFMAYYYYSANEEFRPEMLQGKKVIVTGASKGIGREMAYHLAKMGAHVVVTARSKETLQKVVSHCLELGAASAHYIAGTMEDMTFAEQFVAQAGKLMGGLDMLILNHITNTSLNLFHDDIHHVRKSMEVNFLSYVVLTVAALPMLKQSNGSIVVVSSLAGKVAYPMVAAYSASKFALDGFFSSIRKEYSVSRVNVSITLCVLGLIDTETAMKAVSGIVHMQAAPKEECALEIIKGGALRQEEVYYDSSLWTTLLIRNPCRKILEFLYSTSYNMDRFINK
Experimental: The enzymatic test is based on the conversion of [^3H] cortisone into [^3H] cortisol by 11β-HSD1. […] The sealed plates are centrifuged at low speed for mixing the components and then incubated for 2 hours at 37° C. (enzymatic phase). The enzymatic reaction is stopped by adding 70 μl/well of complex [10 mg/mL of yttrium silicate SPA beads associated with the protein A (GE Healthcare) and pre-incubated with an anti-cortisol monoclonal antibody (East Coast Biologics, ME)] containing 10 μM of 18β-glycerrhitinic acid. The plates are sealed and then incubated under slow orbital stirring for 2 hours at room temperature (detection phase).

11β-HSD1 [2] = molecular target: T1, 11β-HSD1; experiment: Human enzymatic activity of 11β-HSD1 from liver microsomes, cortisone to cortisol conversion, HTRF detection (inhibition %); details: 10^−6M inhibitor, read-out: 11β-HSD1/HTRF % inhib. (10^−6M)
Experimental: 1) Human Enzymatic Activity of 11β-HSD1 from Liver Microsomes after Treatment with Inhibitor Compounds (Inhibition %).
The enzymatic test is based on the conversion of cortisone into cortisol by 11β-HSD1. […] A calibration curve of known cortisol concentrations is produced simultaneously under the same experimental conditions. The plates are incubated for 2 hours at 37° C. (enzymatic phase). By adding 25 μL of conjugate cortisol-d2 and of 25 μL of anti-cortisol anαtibody labeled with Eu^3+ cryptate per well, the enzymatic reaction may be stopped and after incubation of 2 hours at room temperature the formed cortisol (detection phase) may be quantified by HTRF® (CIS bio international, reference 62CO2PEC). The fluorescence measurements are conducted with a Fusion™ α(Perkin Elmer) reader. For each well, fluorescence is measured at 620 nm and at 665 nm. A ratio (λ665 nm/λ620 nm) and a specific FRET signal are calculated, with which an inhibition percentage may be determined for each concentration of evaluated inhibitor compound.

11β-HSD2 = molecular target: T2, 11β-HSD2 (Homo sapiens, UniProt P80365); experiment: Human enzymatic activity of 11β-HSD2 from kidney microsomes, [3H]cortisol to [3H]cortisone conversion, SPA (inhibition %); details: 10^−5M inhibitor, read-out: 11β-HSD2/SPA % inhib. (10^−5M)
T2 construct: of human kidney microsomes (Xenotech); tissue Xenotech; host or cells: human kidney microsomes
T2 sequence (P80365 1-405): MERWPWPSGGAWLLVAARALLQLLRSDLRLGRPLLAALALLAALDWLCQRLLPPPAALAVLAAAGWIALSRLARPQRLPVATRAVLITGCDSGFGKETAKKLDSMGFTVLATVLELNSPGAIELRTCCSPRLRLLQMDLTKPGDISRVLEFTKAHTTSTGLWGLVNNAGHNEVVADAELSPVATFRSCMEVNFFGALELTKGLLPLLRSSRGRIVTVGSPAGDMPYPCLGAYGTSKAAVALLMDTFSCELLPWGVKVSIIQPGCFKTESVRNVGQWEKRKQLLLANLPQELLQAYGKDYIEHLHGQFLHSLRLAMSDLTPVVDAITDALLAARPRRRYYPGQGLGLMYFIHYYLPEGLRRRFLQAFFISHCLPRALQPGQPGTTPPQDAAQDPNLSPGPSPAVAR
Experimental: 3) Human Enzymatic Activity of 11β-HSD2 from Kidney Microsomes after Treatment with the Inhibitor Compounds (Inhibition %).
The enzymatic test is based on the conversion of [^3H] cortisol into [^3H] cortisone by 11β-HSD2. The enzymatic reaction is started by adding 0.75 μg (standardization of this amount in order to obtain 80% of the conversion maximum of the substrate under the experimental conditions) of human kidney microsomes (Xenotech) to wells (Optiplate™ 96-well plates, a reaction volume of 50 μL) containing 8 nM [1,2,6,7-^3H] cortisol (specific activity of 70-75 Ci/mmol, Amersham-GE Healthcare) in a 50 mM HEPES buffer (pH 7.4) with 100 mM KCl, 5 mM NaCl, 2 mM MgCl2, 1 mM NAD^+ and the inhibitor compound or the carrier (1% DMSO). The sealed plates are centrifuged at low speed in order to mix the components and then incubated for 2 hours at 37° C. (enzymatic phase). The enzymatic reaction is stopped by adding 70 μl/well of complex [10 mg/mL of yttrium silicate SPA beads associated with protein A (GE Healthcare) and pre-incubated with an anti-cortisol monoclonal antibody (East Coast Biologics, ME)] containing 10 μM of 18β-glycerrhitinic acid. The plates are sealed and then incubated under slow orbital stirring for 2 hours at room temperature (detection phase). After centrifugation, the measurements are conducted with a scintillation counter TopCount NXT (Perkin Elmer). An inhibition percentage for each evaluated compound concentration is calculated relatively to the standard enzymatic activity (carrier 1% DMSO).

| EC50 (11β-HSD1 [1]) | inhibition at 1 µM (11β-HSD1 [1]) | inhibition at 1 µM (11β-HSD1 [2]) | inhibition at 10 µM (11β-HSD2) | SMILES |
| --- | --- | --- | --- | --- |
| 16 nM | 97% | 99% | 42% | CN1C(C(=O)c2ccc3ccccc3c2)=C(O)c2ccccc2S1(=O)=O [Example 1, (4-Hydroxy-2-methyl-1,1-dioxo-2H-benzo[e][1,2]thiazin-3-yl)(naphthalen-2-yl)methanone] |
| 64 nM | 93% | 99% | 33% | Cc1ccc(C(=O)C2=C(O)c3ccccc3S(=O)(=O)N2C)cc1 [Example 3, (4-hydroxy-2-methyl-2H-1,1-dioxo-benzo[e][1,2]thiazin-3-yl) (4-methylphenyl)methanone] |
| 60 nM | 88% | 98% | 5% | CCN1C(C(=O)c2ccc3ccccc3c2)=C(O)c2ccccc2S1(=O)=O [Example 9, (4-hydroxy-2-ethyl-1,1-dioxo-2H-benzo[e][1,2]thiazin-3-yl)(naphthalen-2-yl)methanone] |
| 11 nM | 99% | 100% | 61% | CN1C(C(=O)c2ccc3ccccc3c2)=C(O)c2ccc(F)cc2S1(=O)=O [Example 17, (7-Fluoro-4-hydroxy-2-methyl-1,1-dioxo-2H-benzo[e][1,2]thiazin-3-yl)(naphthalen-2-yl)methanone] |
| 69 nM | 91% | 100% | 25% | CCN1C(C(=O)c2ccc3ccccc3c2)=C(O)c2ccc(F)cc2S1(=O)=O [Example 18, (7-Fluoro-4-hydroxy-2-ethyl-1,1-dioxo-2H-benzo[e][1,2]thiazin-3-yl)(naphthalen-2-yl)methanone] |
| 72 nM | 91% | 100% | 63% | CC(=O)OC1=C(C(=O)c2ccc3ccccc3c2)N(C)S(=O)(=O)c2ccccc21 [Example 46, Acetic acid 2-methyl-3-(naphthalene-2-carbonyl)-1,1-dioxo-2H-benzo[e][1,2]thiazin-4-yl ester] |
| 27 nM | 97% | 100% | 71% | CN1C(C(=O)c2ccc3ccccc3c2)=C(OC(=O)COc2ccccc2)c2ccccc2S1(=O)=O [Example 54, Phenoxyacetic acid 2-methyl-3-(naphthalene-2-ylcarbonyl)-1,1-dioxo-2H-benzo[e][1,2]thiazin-4-yl ester] |
| 43 nM | 93% | 100% | 31% | CN1C(C(=O)c2ccc(Cl)c(Cl)c2)=C(O)c2ccccc2S1(=O)=O [Example 123, (4-hydroxy-2-methyl-1,1-dioxo-2H-benzo[e][1,2]thiazin-3-yl) (3,4-dichlorophenyl)methanone] |
| 21 nM | 87% | 100% |  | CN1C(C(=O)c2cccc(Br)c2)=C(O)c2ccccc2S1(=O)=O [Example 142, (3-Bromo-phenyl)-(4-hydroxy-2-methyl-1,1-dioxo-1,2-dihydro-2H-benzo[e][1,2]thiazin-3-yl)-methanone] |
